Where “and” joins values, the source holds several entries; their conditions need not be identical. Equal values may be shown once.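 Following 48 hours of exposure in 96-well plates, responses at five concentrations were used to interpolate endpoints linearly. GI50: concentration for 50% inhibition of growth. TGI: total growth inhibition.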
Assays:
Test in all cases: inhibition of tumour cell growth, NCI panel, 48 h
A498 renal = system: A498 renal
CCRF-CEM leukemia = system: CCRF-CEM leukemia
HOP-62 NSCLC = system: HOP-62 NSCLC
HS 578T breast = system: HS 578T breast
MOLT-4 leukemia = system: MOLT-4 leukemia
OVCAR-4 ovarian = system: OVCAR-4 ovarian
SF-268 CNS = system: SF-268 CNS
SF-295 CNS = system: SF-295 CNS
SNB-75 CNS = system: SNB-75 CNS
SW-620 colon = system: SW-620 colon

Row | Structure (SMILES) | GI50 (A498 renal) [µM] | TGI (A498 renal) [µM] | GI50 (CCRF-CEM leukemia) | TGI (CCRF-CEM leukemia) | GI50 (HOP-62 NSCLC) [µM] | TGI (HOP-62 NSCLC) | GI50 (HS 578T breast) | TGI (HS 578T breast) | GI50 (MOLT-4 leukemia) | TGI (MOLT-4 leukemia) | GI50 (OVCAR-4 ovarian) | TGI (OVCAR-4 ovarian) | GI50 (SF-268 CNS) | TGI (SF-268 CNS) | GI50 (SF-295 CNS) | TGI (SF-295 CNS) | GI50 (SNB-75 CNS) | TGI (SNB-75 CNS) | GI50 (SW-620 colon) | TGI (SW-620 colon)
1 | CC1=C[C@H]2c3c(c(O)c(O)c4oc5cc(O)cc(O)c5c(=O)c34)[C@H](c3cc(O)c(O)c4oc5cc(O)cc(O)c5c(=O)c34)[C@H]2C(C)(C)C1 | 1.89 | 4.63 | 0.641 µM | 4.1 µM | 1.53 | 4 µM and 6 µM | 2.07 µM and 1.49 µM | 8.9 µM and 7.39 µM | 0.764 µM and 1.92 µM | 3.31 µM and 12.9 µM | 3.92 µM and 2.9 µM | 23.2 µM and 16.6 µM | 2.14 µM and 2.09 µM | 11.3 µM and 11.8 µM | 1.98 µM and 1.63 µM | 6.32 µM and 4.96 µM | 1.51 µM and 2.08 µM | 10.5 µM and 12.7 µM | 1.26 µM and 1.28 µM | 4.69 µM and 3.5 µM
2 | COc1ccc(S(=O)(=O)O)cc1NS(=O)(=O)c1ccc(C)cc1 |  | > 100 |  | > 100 µM |  | > 100 µM |  | > 100 µM |  | > 100 µM |  | > 100 µM |  | > 100 µM |  | > 100 µM |  | > 100 µM |  | > 100 µM
3 | COc1cc(Nc2ncc3c(n2)-c2ccc(Cl)cc2C(c2c(F)cccc2OC)=NC3)ccc1C(=O)O | 0.211 | 2.55 | 0.579 µM | > 65.9 µM | 5.08 | 58.5 µM | 3.3 µM | > 71.3 µM | 8.09 µM | > 75.9 µM | 3.7 µM | > 86.2 µM | 9.51 µM | 92.8 µM | 0.0719 µM | > 64.1 µM | 2.23 µM | 24.6 µM | 1.74 µM | > 100 µM
4 | COc1cc(C(=O)/C=C/c2c(-c3ccc(F)cc3)nc3sccn23)cc(OC)c1OC | 2.35 | 6.16 | 2.68 µM | > 27.3 µM | 1.96 | 5.73 µM | 2.05 µM | 6.44 µM | 2.16 µM | 6.35 µM | 3.27 µM | 38.1 µM | 2.37 µM | 7.36 µM | 2.37 µM | 10.6 µM | 1.83 µM | 7.31 µM | 2.92 µM | 11.2 µM
5 | C/C1=C\CC[C@@](C)(O)[C@H]2C[C@H](CC/C(C)=C/CC1)C1(CC1)C(=O)O2 | 20.1 | 66.2 | 13.5 µM | 39 µM | 18.5 | 35.4 µM | 29.9 µM | 96.5 µM | 16.6 µM | 55.9 µM | 63.4 µM | > 100 µM | 19.3 µM | 41.2 µM | 19.3 µM | 46.7 µM | 44.2 µM | > 100 µM | 21.8 µM | 46.2 µM
6 | CC(=O)OC1CCC2(C)C(CCC3C2CCC2(C)C(C4=CC(=O)OC4)CCC32)C1 (stereo not given) | 1.43 | 3.4 | 1.45 µM | 4.62 µM | 14.5 | 38.3 µM | 4.68 µM | 32.1 µM | 2.6 µM | 6.3 µM | 12.1 µM | 95.1 µM | 2.38 µM | 10.1 µM |  |  | 11.6 µM | 30.2 µM | 32 µM | > 100 µM
7 | Cc1sc2nc(-c3ccccn3)c(/C=N/N=C(N)N)n2c1C | 11.8 | 24.4 | 6.02 µM | 19 µM | 8.06 | 16.9 µM | 12.7 µM | 27.7 µM | 10.2 µM | > 27.5 µM | 5.15 µM | 13.3 µM | 8.15 µM | 29.8 µM | 8.77 µM | 16.9 µM | 21.2 µM | 47.4 µM | 4.5 µM | 13.5 µM
8 | CN(C)CCCNC(=O)c1cc2c3ccccc3[nH]c2c2ncccc12 | 14.8 | 31.7 | 4.31 µM | 56.4 µM | 5.99 | 36.1 µM | 14.5 µM | 38.3 µM | 8.78 µM | > 100 µM | 21 µM | 81.4 µM | 16.7 µM | 64.1 µM | 7.49 µM | 28 µM | 13 µM | 33.8 µM | 6.34 µM | 33.4 µM
9 | NC1=CC(=O)C(=O)c2cccnc21 | 10.2 | 22.7 | 3.16 µM | 10.5 µM | 2.58 | 7.15 µM | 5.16 µM | 55.1 µM | 3.15 µM | 8.41 µM | 2.59 µM | 8.15 µM | 4.81 µM | 18 µM | 2.48 µM | 10.3 µM | 3.02 µM | 15.3 µM | 8.67 µM | 24.3 µM
10 | COc1ccc(-c2nnc3n(C)c(=O)c4ccccc4n23)cc1O | 6.42 | 36.6 | 1.81 µM | > 100 µM | 0.176 | 19.8 µM | 0.964 µM | 35.9 µM | 1.17 µM | > 100 µM | 4.32 µM | > 100 µM | 5.29 µM | > 100 µM | 1.05 µM | 13 µM | 0.161 µM | 27.6 µM | 0.149 µM | > 100 µM
11 | O=C1C[C@@H](c2ccccc2)NCCCCN(O)CCCN1 |  | > 100 |  | > 100 µM |  | > 100 µM |  | > 100 µM |  | > 100 µM |  | > 100 µM |  | > 100 µM |  | > 100 µM |  | > 100 µM |  | > 100 µM
12 | C[C@@H]1CN(Cc2ccc(/C=C/c3n[nH]c4ccc5nc(-c6cn[nH]c6C(F)(F)F)c6c(c5c34)CCCC6)cc2)C[C@H](C)O1 | 1.21 | 6.51 | 0.718 µM | 34.2 µM | 4.6 | 30.8 µM | 2.05 µM | 10.8 µM | 2.6 µM | 23.2 µM | 5.03 µM | 24.9 µM | 4.21 µM | 19.1 µM | 3.35 µM | 18.1 µM | 0.643 µM | 10.1 µM | 2.02 µM | 10.1 µM
13 | CCOC(=O)Nc1nc2c(F)c(F)c(F)cc2s1 | 31.8 | > 100 | > 100 µM | > 100 µM | 33.9 | > 100 µM | 27.4 µM | > 100 µM | > 100 µM | > 100 µM | 37.5 µM | > 100 µM | 43.8 µM | > 100 µM | 38.8 µM | > 100 µM | 23.4 µM | 94.4 µM | > 100 µM | > 100 µM
14 | Nc1c(C(=O)Nc2cccc3ccccc23)sc2nc3c(cc12)CCCC3 | 0.366 | 7.78 | 0.658 µM | > 100 µM | 2.16 | > 100 µM | 0.852 µM | > 100 µM | 0.637 µM | > 100 µM | 1.11 µM | > 100 µM | 3.74 µM | > 100 µM | 0.621 µM | > 100 µM | 1.04 µM | > 100 µM | 0.552 µM | > 100 µM
15 | Cc1cc2nc3ccc(N=Nc4ccc(N(C)C)cc4)cc3n(-c3ccccc3)c-2cc1=N | 0.0308 | 1.09 | 0.00858 µM and 0.0162 µM | 0.203 µM and 0.141 µM | 0.0406 | 1.75 µM | 0.0168 µM | 0.0816 µM | 0.0146 µM | 1.92 µM | 0.0116 µM and 0.0415 µM | 0.12 µM and 0.802 µM | 0.0332 µM | 0.26 µM | 0.0154 µM and 0.0314 µM |  | 0.05 µM | 1.25 µM | 0.0221 µM | 0.12 µM
16 | CC(C)(C)c1ccc(C(=O)N/N=C/c2ccc(O)cc2O)cc1 | 1.27 | 6.09 | 0.26 µM | > 36.9 µM | 0.418 | 11.1 µM | 2.42 µM | 27.3 µM | 0.346 µM | 14.9 µM | 0.238 µM | 14.9 µM | 0.358 µM | 8.19 µM | 0.327 µM | 3.22 µM | 0.584 µM | 13.6 µM | 0.62 µM | 13.1 µM
17 | Cc1ccc(C(=O)Nc2ccc(CN3CCN(C)CC3)c(C(F)(F)F)c2)cc1C#Cc1cncc2ncccc12 | 0.209 | 0.656 | 0.902 µM | 3.61 µM | 0.474 | 6.07 µM | 0.232 µM | 1.08 µM | 0.353 µM | 16.8 µM | 0.289 µM | 4.75 µM | 0.408 µM | 4.33 µM | 1.2 µM | 16.2 µM | 0.264 µM | 1.39 µM | 0.443 µM | 1.76 µM
18 | COC(=O)[C@]12CC[C@@H](C)[C@H](C)[C@@H]1C1=CC[C@@H]3[C@@]4(C)C(c5ncon5)=C[C@@](C)(CO)C4=CC[C@@]3(C)[C@]1(C)CC2 | 1.69 | 3.42 | 1.89 µM | 4.35 µM | 2.42 | 5.08 µM | 2.52 µM | 8.03 µM | 1.69 µM | 3.92 µM | 3.1 µM | 11.8 µM | 2.34 µM | 6.89 µM | 2.11 µM | 5.03 µM | 1.62 µM | 4.33 µM | 1.96 µM | 3.85 µM
19 | Cc1cc(N(CCCNc2ccnc3cc(Cl)ccc23)Cc2cccs2)nc(Cl)n1 | 2.16 | 11.7 | 5.57 µM | > 100 µM | 11.8 | 29.6 µM | 9.29 µM | 41.5 µM | 2.72 µM | 22.9 µM | 1.69 µM | 14.6 µM | 10.5 µM | 29.7 µM |  |  | 2.82 µM | 18 µM | 3.45 µM | 18.9 µM
